Experimental data: patent US9388148B2, “Acylaminocycloalkyl compounds suitable for treating disorders that respond to modulation of dopamine D3 receptor” (AbbVie Deutschland GmbH & Co. KG, priority 2013, dated 2016)

What was measured:
[1] = Determination of the microsomal half-life / microsomal clearance; type: in vitro ADME; settings: pH 7.4; human liver microsomes, 0.5 μM test substance, 0.25 mg protein/ml, NADPH, 37° C.; read-out: Human mCl (mikrosomal clearance)
Method: The metabolic stability of the compounds of the invention was determined in the following assay.
The test substances were incubated in a concentration of 0.5 μM as follows:
0.5 μM test substance are preincubated together with liver microsomes from different species (from rat, human or other species) (0.25 mg of microsomal protein/ml) in 0.05 M potassium phosphate buffer of pH 7.4 in microtiter plates at 37° C. for 5 min. The reaction is started by adding NADPH (1 mg/mL). After 0, 5, 10, 15, 20 and 30 min, 50 μl aliquots are removed, and the reaction is immediately stopped and cooled with the same volume of acetonitrile. The samples are frozen until analyzed. The remaining concentration of undegraded test substance is determined by MSMS. The half-life (T1/2) is determined from the gradient of the signal of test substance/unit time plot, it being possible to calculate the half-life of the test substance, assuming first order kinetics, from the decrease in the concentration of the compound with time. The microsomal clearance (mC1) is calculated from mC1=1n2/T1/2/(content of microsomal protein in mg/ml)×1000 [ml/min/mg] (modified from references: Di, The Society for Biomoleculur Screening, 2003, 453-462; Obach, DMD, 1999 vol 27. N 11, 1350-1359).

[2] = target: T1, human dopamine D2L receptors (long isoform) (Homo sapiens, UniProt P14416); test: Dopamine D2L receptor binding ([125I]iodospiperone displacement); settings: selectivity ratio, human D2L vs human D3 binding
T1 construct: expressed in transfected cells; host or cells: HEK-293
Method: The substance to be tested was either dissolved in methanol/Chremophor® (BASF SE) or in dimethyl sulfoxide and then diluted with water to the desired concentration.
Each assay mixture was run in triplicate. • The incubation buffer contained 50 mM tris, 120 mM NaCl, 5 mM KCl, 2 mM CaCl2, 2 mM MgCl2 and 0.1% bovine serum albumin, 10 μM quinolone and 0.1% ascorbic acid (prepared fresh daily). […] Each assay mixture was run in triplicate. • The incubation buffer contained 50 mM tris, 120 mM NaCl, 5 mM KCl, 2 mM CaCl2, 2 mM MgCl2 and 0.1% bovine serum albumin. The buffer was adjusted to pH 7.4 with HCl. c) Measurement and analysis: • After having been incubated at 25° C. for 60 minutes, the assay mixtures were filtered through a Whatman GF/B glass fiber filter under vacuum using a cell col-lecting device. The filters were transferred to scintillation viols using a filter transfer system. After 4 ml of Ultima Gold® (Packard) have been added, the samples were shaken for one hour and the radioactivity was then counted in a Beta-Counter (Packard, Tricarb 2000 or 2200CA).

T1 sequence (P14416 whole entry, canonical isoform): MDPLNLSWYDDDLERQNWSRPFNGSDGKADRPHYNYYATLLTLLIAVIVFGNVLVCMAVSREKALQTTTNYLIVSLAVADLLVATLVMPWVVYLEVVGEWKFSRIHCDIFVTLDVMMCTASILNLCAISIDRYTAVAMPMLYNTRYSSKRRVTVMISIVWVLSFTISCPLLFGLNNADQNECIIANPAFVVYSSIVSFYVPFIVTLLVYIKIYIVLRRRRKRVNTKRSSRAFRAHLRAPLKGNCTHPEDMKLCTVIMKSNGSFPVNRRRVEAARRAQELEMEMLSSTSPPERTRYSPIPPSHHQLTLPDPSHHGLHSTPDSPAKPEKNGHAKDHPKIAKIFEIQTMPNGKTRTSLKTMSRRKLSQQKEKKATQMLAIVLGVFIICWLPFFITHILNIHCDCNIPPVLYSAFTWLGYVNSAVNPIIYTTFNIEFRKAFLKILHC

Row | Structure (SMILES) | microsomal CLint at 0.5 μM [1] [µL/min/mg] | D2/D3, Ki (D2L)/Ki (D3) [2]
1 | CC(C)(C)c1nc(C2CCC2)cc(N2CCN(CC[C@H]3C[C@H](NC(=O)[C@H]4C[C@H](O)C4)C3)CC2)n1.O=C(O)C(F)(F)F [Compound 39, trans-N-[trans-3-[2-[4-(2-tert-butyl-6-cyclobutyl-pyrimidin-4-yl)piperazin-1-yl]ethyl]cyclobutyl]-3-hydroxy-cyclobutanecarboxamide; 2,2,2-trifluoroacetic acid] | < 20 | +++ (+++ >50)
2 | CC(C)(C)c1nc(C2CCC2)cc(N2CCN(CC[C@H]3CC[C@H](NC(=O)[C@H]4C[C@@H](O)C4)CC3)CC2)n1 [Compound 13, Cis-N-[trans-4-[2-[4-(2-tert-butyl-6-cyclobutyl-pyrimidin-4-yl)piperazin-1-yl]ethyl]cyclohexyl]-3-hydroxy-cyclobutanecarboxamide] | > 120 | ++ (++ >20)
3 | COCc1cc(N2CCN(CC[C@H]3CC[C@H](NC(=O)[C@H]4CC[C@H](O)CC4)CC3)CC2)nc(C(C)(C)C)n1 [Compound 37, trans-N-[trans-4-[2-[4-[2-tert-butyl-6-(methoxymethyl)pyrimidin-4-yl]piperazin-1-yl]ethyl]cyclohexyl]-4-hydroxy-cyclohexanecarboxamide] | 20 to 120 | +++ (+++ >50)
4 | COCCc1cc(N2CCN(CC[C@H]3C[C@@H](NC(=O)[C@H]4CC[C@@H](O)CC4)C3)CC2)nc(C(C)(C)C)n1 [Compound 12, Cis-N-[cis-3-[2-[4-[2-tert-butyl-6-(2-methoxyethyl)pyrimidin-4-yl]piperazin-1-yl]ethyl]cyclobutyl]-4-hydroxy-cyclohexanecarboxamide] | 20 to 120 | +++ (+++ >50)
5 | COCCc1cc(N2CCN(CC[C@H]3C[C@H](NC(=O)[C@H]4CC[C@H](O)CC4)C3)CC2)nc(C(C)(C)C)n1.O=C(O)C(F)(F)F [Compound 7, Trans-N-[trans-3-[2-[4-[2-tert-butyl-6-(2-methoxyethyl)pyrimidin-4-yl]piperazin-1-yl]ethyl]cyclobutyl]-4-hydroxy-cyclohexanecarboxamide; 2,2,2-trifluoroacetic acid] | 20 to 120 | +++ (+++ >50)
6 | CC(C)(C)c1nc(C(F)F)cc(N2CCN(CC[C@H]3CC[C@@H](NC(=O)[C@H]4CC[C@H](O)CC4)CC3)CC2)n1 [Compound 30, Trans-N-[cis-4-[2-[4-[2-tert-butyl-6-(difluoromethyl)pyrimidin-4-yl]piperazin-1-yl]ethyl]cyclohexyl]-4-hydroxy-cyclohexanecarboxamide] | 20 to 120 | ++ (++ >20)
7 | CC(C)(C)c1cc(N2CCN(CC[C@H]3CC[C@H](NC(=O)[C@H]4CC[C@H](O)CC4)CC3)CC2)nc(C(C)(C)C)n1 [Compound 20, trans-N-[trans-4-[2-[4-(2,6-ditert-butylpyrimidin-4-yl)piperazin-1-yl]ethyl]cyclohexyl]-4-hydroxy-cyclohexanecarboxamide] | 20 to 120 | ++ (++ >20)
8 | COCCc1cc(N2CCN(CC[C@H]3CC[C@H](NC(=O)[C@H]4CC[C@H](O)CC4)CC3)CC2)nc(C(C)(C)C)n1 [Compound 2, trans-N-[trans-4-[2-[4-[2-tert-butyl-6-(2-methoxyethyl)pyrimidin-4-yl]piperazin-1-yl]ethyl]cyclohexyl]-4-hydroxy-cyclohexanecarboxamide] | 20 to 120 | ++ (++ >20)
9 | COCCc1cc(N2CCN(CC[C@H]3CC[C@H](NC(=O)[C@H]4CC[C@@H](O)CC4)CC3)CC2)nc(C(C)(C)C)n1 [Compound 4, cis-N-[trans-4-[2-[4-[2-tert-butyl-6-(2-methoxyethyl)pyrimidin-4-yl]piperazin-1-yl]ethyl]cyclohexyl]-4-hydroxy-cyclohexanecarboxamide] | > 120 | ++ (++ >20)
10 | CC(C)(C)c1nc(C2CCC2)cc(N2CCN(CC[C@H]3CC[C@H](NC(=O)C4CC(O)(C(F)(F)F)C4)CC3)CC2)n1 (relative stereo) [Compound 19, N-[trans-4-[2-[4-(2-tert-butyl-6-cyclobutyl-pyrimidin-4-yl)piperazin-1-yl]ethyl]cyclohexyl]-3-hydroxy-3-(trifluoromethyl)cyclobutanecarboxamide] | 20 to 120 | + (+ >10)
11 | CC(C)(C)c1nc(C2CCC2)cc(N2CCN(CC[C@H]3C[C@H](NC(=O)[C@H]4CC[C@@H](O)CC4)C3)CC2)n1.O=C(O)C(F)(F)F [Compound 16, Cis-N-[trans-3-[2-[4-(2-tert-butyl-6-cyclobutyl-pyrimidin-4-yl)piperazin-1-yl]ethyl]cyclobutyl]-4-hydroxy-cyclohexanecarboxamide; 2,2,2-trifluoroacetic acid] | > 120 | ++ (++ >20)
12 | CC(C)(C)c1nc(C2CCC2)cc(N2CCN(CC[C@H]3C[C@@H](NC(=O)[C@H]4CC[C@H](O)CC4)C3)CC2)n1 [Compound 10, Trans-N-[cis-3-[2-[4-(2-tert-butyl-6-cyclobutyl-pyrimidin-4-yl)piperazin-1-yl]ethyl]cyclobutyl]-4-hydroxy-cyclohexanecarboxamide] | 20 to 120 | +++ (+++ >50)
13 | CC(C)(C)c1cc(N2CCN(CC[C@H]3CC[C@@H](NC(=O)[C@H]4CC[C@H](O)CC4)CC3)CC2)nc(C(C)(C)C)n1 [Compound 22, trans-N-[cis-4-[2-[4-(2,6-ditert-butylpyrimidin-4-yl)piperazin-1-yl]ethyl]cyclohexyl]-4-hydroxy-cyclohexanecarboxamide] | 20 to 120 | +++ (+++ >50)
14 | CC(C)(C)c1nc(C2CCC2)cc(N2CCN(CC[C@H]3CC[C@@H](NC(=O)[C@H]4CC[C@@H](O)CC4)CC3)CC2)n1.O=C(O)C(F)(F)F [Compound 15, Cis-N-[cis-4-[2-[4-(2-tert-butyl-6-cyclobutyl-pyrimidin-4-yl)piperazin-1-yl]ethyl]cyclohexyl]-4-hydroxy-cyclohexanecarboxamide; 2,2,2-trifluoroacetic acid] | > 120 | +++ (+++ >50)
15 | CC(C)(C)c1nc(N2CCN(CCC3CCC(NC(=O)C4CCC(O)CC4)CC3)CC2)cc(C2(C)CC2)n1 (centres unmarked) [Compound 27, N-[4-[2-[4-[2-tert-butyl-6-(1-methylcyclopropyl)pyrimidin-4-yl]piperazin-1-yl]ethyl]cyclohexyl]-4-hydroxy-cyclohexanecarboxamide] | 20 to 120 | ++ (++ >20)
16 | COCCc1cc(N2CCN(CC[C@H]3C[C@H](NC(=O)C4CCC(O)CC4)C3)CC2)nc(C(C)(C)C)n1 (relative stereo) [Compound 11, N-[trans-3-[2-[4-[2-tert-butyl-6-(2-methoxyethyl)pyrimidin-4-yl]piperazin-1-yl]ethyl]cyclobutyl]-4-hydroxy-cyclohexanecarboxamide] | 20 to 120 | ++ (++ >20)
17 | COCCc1cc(N2CCN(CC[C@H]3CC[C@@H](NC(=O)C4CC(O)(C(F)(F)F)C4)CC3)CC2)nc(C(C)(C)C)n1 (relative stereo) [Compound 26, N-[cis-4-[2-[4-[2-tert-butyl-6-(2-methoxyethyl)pyrimidin-4-yl]piperazin-1-yl]ethyl]cyclohexyl]-3-hydroxy-3-(trifluoromethyl)cyclobutanecarboxamide] | < 20 | +++ (+++ >50)
18 | CC(C)(C)c1nc(C2CCCC2)cc(N2CCN(CC[C@H]3CC[C@H](NC(=O)[C@H]4CC[C@H](O)CC4)CC3)CC2)n1 [Compound 35, trans-N-[trans-4-[2-[4-(2-tert-butyl-6-cyclopentyl-pyrimidin-4-yl)piperazin-1-yl]ethyl]cyclohexyl]-4-hydroxy-cyclohexanecarboxamide] | 20 to 120 | + (+ >10)
19 | CC(C)(C)c1nc(C(F)F)cc(N2CCN(CCC3CCC(NC(=O)C4CCC(O)CC4)CC3)CC2)n1 (centres unmarked) [Compound 29, N-[4-[2-[4-[2-tert-butyl-6-(difluoromethyl)pyrimidin-4-yl]piperazin-1-yl]ethyl]cyclohexyl]-4-hydroxy-cyclohexanecarboxamide] | 20 to 120 | + (+ >10)
